Measurements published in patent publication US12528774B2, “Thiosemicarbazone compounds and uses thereof” (The Regents of the University of California, priority 2019, dated 2026).

Columns and labels:
[1] = system: panel of PDAC, SCLC, and PC cancer models; assay: Proliferation assay (CellTiter-Glo) in panel of PDAC, SCLC and PC cancer models; type: cell-based, human and mouse; details: media with 20 μM CuCl2, 72 h
From the text: FIG. 1A: IC50 values in a panel of human and mouse prostate cancer (PC)(cell lines CF-2, LNCaP, 22Rv1, RM-1, MyC CaP); small cell lung carcinoma (SCLC)(cell lines NCI-H1963, NCI-H146, NCI-H526); pancreatic ductal adenocarcinoma (PDAC)(CFPAC1, SW1990, HS766T, PANC0203, PANC0813, ASPC1, HPAFII, PATU8902, PANC0327, PANC1, YAPC, L36PL, XWR200, HUPT4, A13A, SUIT2, DAN-G, BxPC3, HPAC, PSN1, SU8686, KP4662, MIAPACA2, PATU8988T); and leukemia (cell lines KG-1, TF-1, Jurkat, MOLT-4, p185-R, MV4-11) models treated with HCT13+Cu(II) (20 μM) for 72 h measured by CellTiterGlo. […] (mean±SD, n=2, one-way ANOVA corrected for multiple comparisons by Bonferroni adjustment, * P<0.05; **P<0.01; ***P<0.001).
Serum copper levels are elevated (>20 μM) in individuals with solid tumor types such as pancreatic ductal adenocarcinoma (PDAC), small cell lung carcinoma (SCLC), and prostate cancer (PC). (Refs. 43-48). These cancers rely upon elevated copper levels to sustain growth, making this transition metal a viable target for therapeutic modulation. (Ref 34). […]
Proliferation assay: Cells were plated in 384-well plates (500 cells/well for adherent cell lines in 30 μl volume). […] Following 72 h incubation, ATP content was measured using CellTiter-Glo reagent according to manufacturer's instructions (Promega, CellTiter-Glo Luminescent Cell Viability Assay), and analyzed by SpectraMax luminometer (Molecular Devices). […]

143 BTK WT cells = assay: Cell cycle analysis in 143 BTK WT cells; type: cell-based; details: HCT13 + Cu(II) 20 μM
Protocol: (§1) FIG. 3A: Mito Stress Test of MIAPACA2 PDAC cells treated with HCT13 (25 nM)+Cu(II) (20 μM) for 24h. FIG. 3B: electron flow assay in isolated mitochondria treated with HCT-13 (100 nM)+Cu(II) (20 μM) for 1h. FIG. 3C: viability of 143 BTK parental (wild type, WT) and ρ0 cells after 48h of the indicated HCT13 concentration+Cu(II) (20 μM) treatment, assessed with Trypan Blue Staining. FIG. 3D: 48h cell cycle histogram and plots of S-phase arrest plots in 143 BTK WT and 143 BTK ρ0 cells at 24, 48 and 72h following treatment with indicated concentrations of HCT13+Cu(II)(20 μM). (mean±SD, n=2, one-way ANOVA corrected for multiple comparisons by Bonferroni adjustment, * P<0.05; ** P<0.01; *** P<0.001).
(§2) Another HCT compound, Dp44mT, was reported to increase AMPK expression and induce ROS, although its cytotoxicity was not attributed to the functionality of the mitochondria. (Ref 50). To determine whether the cytotoxicity of HCT13 was mitochondria-dependent, its effects upon 143 BTK ρ0, an mtDNA-deficient fibroblast cell line, was examined. Both 143 BTK ρ0 and parental (wild type, WT) cells were treated with HCT13+20 μM Cu(II) for 48 hours, after which cell viability was determined through trypan blue staining (FIG. 3C).
Cell cycle: Cell cycle was assessed using Propidium iodide staining at indicated timepoints. Cells were pulsed with EdU 1 h before collection at different time points. […]

143 BTK ρ0 cells = assay: Viability (trypan blue) and cell cycle in 143 BTK ρ0 cells; type: cell-based; details: HCT13 + 20 μM Cu(II), 48 hours
Protocol: as §1
as §2, with “To determine whether the cytotoxicity of HCT13 was mitochondria-dependent, its effects upon 143 BTK ρ0, an mtDNA-deficient fibroblast cell line, was examined.” left out
Viability/Apoptosis assay: Viable cells were measured by Trypan blue staining using vi-cell counter (Beckman Coulter, CA, USA). […]
Cell cycle: Cell cycle was assessed using Propidium iodide staining at indicated timepoints. […]

`CN(C)C(=S)N/N=C/c1nccc2cc(F)ccc12` (mixture of isomers) [HCT13, (E)-2-((6-Fluoroisoquinolin-1-yl)methylene)-N,N-dimethylhydrazine-1-carbothioamide and (Z)-2-((6-Fluoroisoquinolin-1-yl)methylene)-N,N-dimethylhydrazine-1-carbothioamide] was tested, and the “+Cu IC90 range across panel” value [1] was “nanomolar”, the IC90 ([1]; read-out: +Cu IC90 range across panel) was 1 to 200 nM and the S-phase arrest (143 BTK WT cells) was “marked S-phase arrest”. For the same molecule, the “sensitivity of ρ0 cells compared to WT (viability)” value (143 BTK ρ0 cells) was “significantly less sensitive”.
